Among the data in patent US20250154154A1 (Relay Binney Street, 2nd Floor, priority 2020, published 2025) are IC50 values, retold here.

pIC50: −log10 of the molar value. Counter-ions that a name gives are not always drawn.

For assay [1], the target named is SRC (Homo sapiens, UniProt P12931). Description: SRC Biochemical Assay Protocol (microfluidic mobility shift assay, FLPeptide4 substrate). The procedure, abridged: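 Recombinant SRC (0.26 nM) preincubated 30 min at RT with compound (0.0017–100 μM) and 1.5 μM FLPeptide4, then 50 μM ATP added; 90 min reaction in HEPES pH 7.4, 10 mM MgCl2, 1% DMSO, EDTA-quenched. Phosphopeptide quantified by microfluidic mobility shift; IC50 from 4-parameter logistic fit.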

Assay [2] relates to RBE cells. Description: Cell Viability Protocol (CellTiterGlo), RBE cells. It is filed as cell-based. Conditions: RBE or SNU-1079 cells, 72 or 120 hour, cell line and time not given. In outline:
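RBE cells plated at 1200/well in RPMI 1640 with 10% FBS, incubated 24 h, then dosed with compound from DMSO stocks and incubated 72 or 120 h at 37° C. CellTiterGlo luminescence normalised to DMSO control; IC50 from 4-parameter fit.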
On the technique in general: In ATP-based viability assays light output follows the ATP content of the culture.

The test system of assay [3] is phospho-S6RP (Ser 235/236) in RBE cells. Description: Cellular Proliferation Protocol (cellular phospho-S6RP HTRF), RBE cells. It is filed as cell-based. Conditions: 6 hours treatment, RBE or SNU-1079 cells, cell line not given. How it is done: Cellular Proliferation Protocol
Cellular phospho-S6RP (Ser 235/236) was measured using a Fluorescence Resonance Energy Transfer (FRET) sandwich assay format (Cisbio HTRF Cat. No. 64RP6PEG). This format uses 2 different, labelled antibodies (Eu^3+-Cryptate donor and d2 acceptor) that positively modulate a specific signal in proportion to phospho-S6RP (Ser 235/236) directly in cells. RBE or SNU-1079 cells were cultivated in T-75 flasks at 37° C., 5% CO2, 95% relative humidity in RPMI 1640 medium with 10% FBS and 1% Penicillin/Streptomycin and detached with trypsin/EDTA at 80-90% confluency. Cells were then seeded in 40 μL volume per well in 384-well flat-bottom polystyrene microplates (Corning Cat. No. 3570) at a seeding density of 2000 cells/well for RBE and 3000 cells/well for SNU-1079 followed by 24 hour incubation at 37° C., 5% CO2, 95% relative humidity. On the next day, compounds were diluted to […] the indicated concentrations and 40 nL of these treatment compounds, along with DMSO vehicle control, were added to the cells (final concentration of compounds is then the indicated concentrations). Treatment was carried out for 6 hours at 37° C., 5% CO2, 95% relative humidity after which the plates were cooled to room temperature before aspirating the medium. Cells were then lysed on a shaker for 45 minutes at room temperature with 20 μL of 1× supplemented lysis buffer per well. After lysis, 5 μL of pre-mixed antibodies was added per well. Plates were covered with black sealing film and incubated overnight at room temperature on a shaker before being read on a PerkinElmer EnVision microplate reader. Percent activation was calculated relative to DMSO control and IC50 values were obtained from dose-response data fitted to a 4-parameter curve.
Background: TR-FRET usually uses a lanthanide donor and a delayed reading to cut background.

For the compound `C=CC(=O)N1CC[C@@H](N2CC(C#Cc3c(-c4ccc(Cl)c(O)c4)c4c(N)ncnc4n3C)C2)[C@@H](O)C1` [II-65], the results for the pIC50 in assay [1], in assay [2] and in assay [3] were not below 8.00, 6.00 to 8.00 and 6.00 to 8.00, respectively.
Take `C=CC(=O)N[C@@H](CO)C(=O)N1CCC(C#Cc2c(-c3ccc(Oc4ccccc4)cc3)c3c(N)ncnc3n2C)CC1` [II-198]: the pIC50 in assay [1], in assay [2] and in assay [3] (6 h) was not below 8.00 throughout.
`C=CC(=O)N1CCC(N2CC(C#Cc3c(-c4cccc5c4cnn5C)c4c(N)ncnc4n3C)C2)CC1` [II-93]: the pIC50 in assay [1], in assay [2] and in assay [3] was 5.00 to 6.00 in each case.
On to `C=CC(=O)N1CCC(N2CC(C#Cc3c(-c4ccc(F)c5c4OCO5)c4c(N)ncnc4n3C(C)C)C2)CC1` [II-134], for which the pIC50 (as a rule, −log10 of the IC50, conventionally taken in molar units) was not below 8.00 in assay [1], 6.00 to 8.00 in assay [2] and 6.00 to 8.00 in assay [3].
In the case of `C=CC(=O)NC1(C(=O)N2CCC(C#Cc3c(-c4ccc(Oc5ccccc5)cc4)c4c(N)ncnc4n3C)CC2)CN(C)C1` [II-196, N-(3-(4-((4-amino-7-methyl-5-(4-phenoxyphenyl)-7H-pyrrolo[2,3-d]pyrimidin-6-yl)ethynyl)piperidine-1-carbonyl)-1-methylazetidin-3-yl)acrylamide], the negative logarithm of the IC50 (pIC50) in assay [1] was 6.00 to 8.00; in assay [2], not below 8.00; in assay [3] (6 h), not below 8.00.
For `C=CC(=O)N(C)CC#Cc1c(-c2ccc(Oc3ccccc3)cc2)c2c(N)ncnc2n1C` [II-163, N-(3-(4-amino-7-methyl-5-(4-phenoxyphenyl)-7H-pyrrolo[2,3-d]pyrimidin-6-yl)prop-2-yn-1-yl)-N-methylacrylamide], the results for the pIC50 in assay [1], in assay [2] and in assay [3] (6 h) were not below 8.00, 6.00 to 8.00 and 6.00 to 8.00, respectively.
As for `C=CC(=O)N1CC[C@@H](N2CC(C#Cc3c(-c4cc(OC)c(Cl)c(OC)c4)c4c(N)ncnc4n3C)C2)[C@@H](O)C1` [II-60], the pIC50 in assay [1], in assay [2] and in assay [3] was 6.00 to 8.00 throughout.
On to `C=CC(=O)N1C[C@@H]2[C@@H](C#Cc3c(-c4ccc(Oc5ccccc5)c(OC)c4)c4c(N)ncnc4n3C)[C@@H]2C1` [II-27], for which the pIC50 in assay [1], in assay [2] and in assay [3] was not below 8.00 each time.
As to `C=CC(=O)N1CCC(N2CC(C#Cc3c(-c4ccc(Cl)cc4)c4c(N)ncnc4n3CCOC)C2)CC1` [II-85], the pIC50 in assay [1], in assay [2] and in assay [3] was 6.00 to 8.00 in each case.
Regarding `C=CC(=O)N1CC[C@@H](N2CC(C#Cc3c(-c4ccc(Cl)c(OC)n4)c4c(N)ncnc4n3C)C2)[C@@H](O)C1` [II-318], the pIC50 in assay [1], in assay [2] and in assay [3] was 6.00 to 8.00 in each case.
Turning to `C=CC(=O)N1CCC(N2CC(C#Cc3c(-c4ccc(Cl)c(CO)c4)c4c(N)ncnc4n3C)C2)CC1` [II-90], the pIC50 in assay [1], in assay [2] and in assay [3] was 6.00 to 8.00 throughout.
For the compound `C=CC(=O)N1CCC(N2CC(C#Cc3c(-c4cccc5c4OCO5)c4c(N)ncnc4n3C)C2)CC1` [II-37], the pIC50 in assay [1], in assay [2] and in assay [3] was 6.00 to 8.00 throughout.
As for `C=CC(=O)N1CC[C@H](N2CC(C#Cc3c(-c4ccc(Cl)c(C)c4)c4c(N)ncnc4n3C(C)C)C2)[C@H](F)C1` [II-111], the values for the pIC50 in assay [1], in assay [2] and in assay [3] were not below 8.00, 6.00 to 8.00 and 6.00 to 8.00, respectively.
As for `COc1cc(Oc2ccccc2F)ccc1-c1c(C#C[C@@H]2[C@H]3CN(C(=O)/C=C/CN(C)C)C[C@@H]23)n(C)c2ncnc(N)c12` [II-228, (E)-1-((1R,5S,6s)-6-((4-amino-5-(4-(2-fluorophenoxy)-2-methoxyphenyl)-7-methyl-7H-pyrrolo[2,3-d]pyrimidin-6-yl)ethynyl)-3-azabicyclo[3.1.0]hexan-3-yl)-4-(dimethylamino) but-2-en-1-one], the pIC50 in assay [1], in assay [2] and in assay [3] (6 h) was 6.00 to 8.00 throughout.
Take `C=CS(=O)(=O)N1CC[C@@H](N2CC(C#Cc3c(-c4ccc(Oc5ccccc5)c(OC)c4)c4c(N)ncnc4n3C)C2)[C@@H](O)C1` [II-82]: the pIC50 in assay [1] is not below 8.00; in assay [2], not below 8.00; in assay [3] it was 6.00 to 8.00.
For the compound `C=CC(=O)N1C[C@@H]2[C@@H](C#Cc3c(-c4ccc(Oc5cccc(C)n5)cc4)c4c(N)ncnc4n3C3CCOC3)[C@@H]2C1` (mixture of isomers) [II-24], the pIC50 in assay [1], in assay [2] and in assay [3] was not below 8.00 each time.
Take `C=CC(=O)N1CC[C@@H](N2CC(C#Cc3c(-c4ccc(Oc5cccc(C)n5)c(Cl)c4)c4c(N)ncnc4n3C)C2)[C@@H](O)C1` [II-20]: the pIC50 in assay [1], in assay [2] and in assay [3] was 6.00 to 8.00 each time.
`C=CC(=O)N1CC2C(C#Cc3c(-c4ccc(Cl)c5c4OCO5)c4c(N)ncnc4n3C)C2C1` (stereo not drawn) [II-127]: the pIC50 was not below 8.00 in assay [1], 6.00 to 8.00 in assay [2] and 6.00 to 8.00 in assay [3].
With `C=CC(=O)N1CCC(O)(C#Cc2c(-c3ccc(Oc4cccc(C)n4)c(OC)c3)c3c(N)ncnc3n2C)CC1` [II-304, formate], the negative logarithm of the IC50 (pIC50) in assay [1], in assay [2] and in assay [3] (6 h) was 6.00 to 8.00 in each case.
For `COc1cc(Oc2cccc(F)c2)ccc1-c1c(C#C[C@@H]2[C@H]3CN(C(=O)/C=C/CN(C)C)C[C@@H]23)n(C)c2ncnc(N)c12` [II-45], the pIC50 in assay [1], in assay [2] and in assay [3] was 6.00 to 8.00 in each case.
Turning to `C=CC(=O)N1CCC(C#Cc2c(-c3ccc(Oc4ccccc4)cc3)c3c(N)ncnc3n2C2CCNC2=O)CC1` (stereo not drawn) [Example I-61], the pIC50 in assay [1] is 6.00 to 8.00; in assay [2] it was 5.00 to 6.00; in assay [3] (6 h), 5.00 to 6.00.
As to `C=CC(=O)N1CC[C@@H](N2CC(C#Cc3c(-c4ccc(OC(C)C)c(OC)c4)c4c(N)ncnc4n3C)C2)[C@@H](O)C1` [II-71], the pIC50 in assay [1], in assay [2] and in assay [3] was 6.00 to 8.00 in each case.
For the compound `Cn1c(C#CC2CCCN(C(=O)/C=C/CN3CCCCC3)CC2)c(-c2ccc(Oc3ccccc3)cc2)c2c(N)ncnc21` (stereo not drawn) [II-180, (E)-1-(4-((4-amino-7-methyl-5-(4-phenoxyphenyl)-7H-pyrrolo[2,3-d]pyrimidin-6-yl)ethynyl)azepan-1-yl)-4-(piperidin-1-yl)but-2-en-1-one formate], the pIC50 in assay [1] is 6.00 to 8.00; in assay [2], 5.00 to 6.00; in assay [3] (6 h), 5.00 to 6.00.
“1-((1R,5S,6s)-6- ((4-amino-5-(2- methoxy-4-((6- methylpyridin-2- yl)oxy)phenyl)-7- (2-methoxyethyl)- 7H-pyrrolo[2,3- d]pyrimidin-6- yl)ethynyl)-3- azabicyclo[3.1.0] hexan-3-yl)prop-2- en-1-one [II-275]”: the pIC50 in assay [1], in assay [2] and in assay [3] was 6.00 to 8.00 in each case.
`C=CC(=O)N1CCC(N2CC(C#Cc3c(-c4ccc(Oc5ccccc5)c(OC)n4)c4c(N)ncnc4n3C)C2)CC1` [II-315]: the pIC50 was 6.00 to 8.00 in assay [1], not below 8.00 in assay [2] and 6.00 to 8.00 in assay [3].
As for `C=CC(=O)N1CC[C@@H](N2CC(C#Cc3c(-c4ccc(Cl)c(CF)c4)c4c(N)ncnc4n3C)C2)[C@@H](O)C1` [II-58], the pIC50 in assay [1], in assay [2] and in assay [3] was 6.00 to 8.00 each time.
On to `Cn1c(C#CC2CN(C(=O)/C=C/CN3CC(F)C3)C2)c(-c2ccc(Oc3ccccc3)cc2)c2c(N)ncnc21` [II-172, (E)-1-(3-((4-amino-7-methyl-5-(4-phenoxyphenyl)-7H-pyrrolo [2,3-d]pyrimidin-6-yl)ethynyl)azetidin-1-yl)-4-(3-fluoroazetidin-1-yl)but-2-en-1-one], for which the pIC50 in assay [1], in assay [2] and in assay [3] (6 h) was 6.00 to 8.00 in each case.
Turning to `COC/C=C/C(=O)N1CCC(N2CC(C#Cc3c(-c4ccc(Oc5ccccc5)cc4)c4c(N)ncnc4n3C)C2)CC1` [II-187, (E)-1-(4-(3-((4-amino-7-methyl-5-(4-phenoxyphenyl)-7H-pyrrolo[2,3-d]pyrimidin-6-yl)ethynyl)azetidin-1-yl)piperidin-1-yl)-4-methoxybut-2-en-1-one], the pIC50 is 6.00 to 8.00 in assay [1], not below 8.00 in assay [2] and not below 8.00 in assay [3] (6 h).
